According to PubChem BioAssay AID1963837 (Molecular Pharmacology Branch, DTP, NCI, 2024):

Test system: 843126-344-R-J1-PDC complex spheroid viability
Assay: Anticancer human tumor 843126-344-R-J1-PDC patient-derived melanoma cell line growth inhibition [POLQ]
Details: for IC50: curve of first compound; for viability, T/C: stronger effect = lower value
Method: Multicellular complex tumor spheroid response to Polymerase (POL) inhibitors (novobiocin, ART-558, RP6685) in combination with a variety of drugs and investigational agents in selected tumor cell lines
The POL inhibitors (novobiocin, ART-558, and RP6685) were evaluated both individually and in combination with standard of care and investigational anticancer small molecules within a complex spheroid model of solid tumors. . Complex spheroids include a stromal component modeled by human endothelial cells (HUVEC) and fibroblasts modeled by human mesenchymal stem cells (MSCs). The concentration ranges selected for each drug and investigational agent were based upon clinically achievable concentrations if the clinical Cmax of the agent was known.
Compounds. The drugs and investigational agents: novobiocin (NSC847541), ART-558 (NSC835418), RP-6685 (NSC848927), peposertib (NSC802822), ceralasertib (NSC780249), elimusertib (NSC800525), camonsertib (NSC841442), AZD-1390 (NSC803789), olaparib (NSC753686), talazoparib (NSC767125), rucaparib (NSC756644), sotorasib (NSC818433), MRTX-1133 (NSC836407), SN-38 (NSC673596), topotecan (NSC609699), epotoside (NSC141540), doxorubicin (NSC123127), gemcitabine (NSC613327), 5-fluorouracil (NSC19893), paclitaxel (NSC125973), vemurafenib (NSC761431), MSA-2 (NSC828583), SN-011 (NSC837082), adavosertib (NSC754352), prexasertib (NSC758257), carboplatin (NSC241240) and oxaliplatin (NSC266046), were obtained from the National Cancer Institute (NCI) Developmental Therapeutics Program Chemical Repository (21). The FDA-approved anticancer drug set is available from the Developmental Therapeutics Program at https://dtp.cancer.gov/organization/dscb/obtaining/. […] The stock solutions were prepared in dimethyl sulfoxide (DMSO, Sigma-Aldrich, St. Louis, MO, cat. D2650), except for the platinum compounds which were prepared in saline (Quality Biological, Gaithersburg, MD, cat. 114-055-101), at 800-fold the tested concentration and stored at -70 degrees C prior to their use. All drugs and investigational agents were tested over a range starting from a high concentration at or near the clinical Cmax and decreasing in half-log increments. If the clinical Cmax for an agent had not been determined, the highest concentration tested was 10 microM, except for SN-38, which was tested at a high concentration of 1 microM.
Cell Culture. All cells were maintained in an incubator at 37 degrees C and 5% CO2 with 95% humidity. The PDC lines were cultured according to standard operating procedures established by the NCI PDMR (https://pdmr.cancer.gov). Table 3 of the manuscript, lists the cell lines along with the number of the three cell types plated to form the mct-spheroids and media for tumor cell growth. After thawing, all PDC lines, except 997537-175-T-J1-PDC and 415267-285-R-J2-PDC, were cultured in Matrigel-coated flasks prepared with a working solution of 1X Ham's F-12 nutrient mix, without supplementation (Thermo Fisher Scientific, cat. 11765054), 100 U/mL penicillin-streptomycin (Thermo Fisher Scientific, cat. 15140122), and 2.5% Matrigel (Corning Inc., Corning, NY, cat. 354248) for the first three passages. The two PDC lines 997537-175-T-J1-PDC and 415267-285-R-J2-PDC were cultured on uncoated flasks. The 857933-349-R-J2-PDC line was cultured in 6C/Colon 1B media containing advanced DMEM/F-12 (Thermo Fisher Scientific, cat. 12634028), 10 mM HEPES (Thermo Fisher Scientific, cat. 15630080), 1X GlutaMAX supplement (Thermo Fisher Scientific, cat. 35050061), 0.1 mg/mL primocin (InvivoGen, San Diego, CA, cat. ant-pm-2), 10% defined fetal bovine serum, heat inactivated (HyClone Laboratories Inc., Logan, UT, cat. SH30070.03HI), 50% L-WRN conditioned media (ATCC, cat. CRL-3276), 1.25 mM N-Acetyl-L-cysteine (Sigma-Aldrich, cat. A9165), 10 mM nicotinamide (Sigma-Aldrich, cat. N0636), 1X B-27 supplement (Thermo Fisher Scientific, cat. 17504044), 1X N-2 supplement (Thermo Fisher Scientific, cat. […]

[1] = second compound 0.0316 µM, first compound 0.0316 µM
[2] = second compound 0.0316 µM, first compound 0.1 µM
[3] = second compound 0.1 µM, first compound 0.0316 µM
[4] = second compound 0.1 µM, first compound 0.1 µM
[5] = second compound 0.316 µM, first compound 0.0316 µM
[6] = second compound 0.316 µM, first compound 0.1 µM
[7] = second compound 1 µM, first compound 0.0316 µM
[8] = second compound 1 µM, first compound 0.1 µM
[9] = second compound 3.16 µM, first compound 0.0316 µM
[10] = second compound 3.16 µM, first compound 0.1 µM
[11] = second compound 10 µM, first compound 0.0316 µM
[12] = second compound 10 µM, first compound 0.1 µM
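For viability, T/C in this document: spheroids exposed to drugs for seven days before readout.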

CC[C@@]1(O)C(=O)OCc2c1cc1n(c2=O)Cc2cc3c(CN(C)C)c(O)ccc3nc2-1 + Cc1cccc(N(C)C(=O)C2C(O)CCN2c2nc(C)cc(C(F)(F)F)c2C#N)c1
IC50 (second compound 0.0316 µM): > 100 nM | IC50 (second compound 0.1 µM): > 100 nM | IC50 (second compound 0.316 µM): > 100 nM | IC50 (second compound 1 µM): > 100 nM | IC50 (second compound 3.16 µM): > 100 nM | IC50 (second compound 10 µM): 97.2 nM | viability, T/C (second compound 0.0316 µM, first compound 0.000316 µM): 98% | viability, T/C (second compound 0.0316 µM, first compound 0.001 µM): 105% | viability, T/C (second compound 0.0316 µM, first compound 0.00316 µM): 89.8% | viability, T/C (second compound 0.0316 µM, first compound 0.01 µM): 103% | viability, T/C [1]: 59.9% | viability, T/C [2]: 52.5% | viability, T/C (second compound 0.1 µM, first compound 0.000316 µM): 86% | viability, T/C (second compound 0.1 µM, first compound 0.001 µM): 92.9% | viability, T/C (second compound 0.1 µM, first compound 0.00316 µM): 110% | viability, T/C (second compound 0.1 µM, first compound 0.01 µM): 80.9% | viability, T/C [3]: 67.1% | viability, T/C [4]: 59.7% | viability, T/C (second compound 0.316 µM, first compound 0.000316 µM): 106% | viability, T/C (second compound 0.316 µM, first compound 0.001 µM): 102% | viability, T/C (second compound 0.316 µM, first compound 0.00316 µM): 93.1% | viability, T/C (second compound 0.316 µM, first compound 0.01 µM): 83.9% | viability, T/C [5]: 70.7% | viability, T/C [6]: 58.5% | viability, T/C (second compound 1 µM, first compound 0.000316 µM): 78.1% | viability, T/C (second compound 1 µM, first compound 0.001 µM): 113% | viability, T/C (second compound 1 µM, first compound 0.00316 µM): 89.3% | viability, T/C (second compound 1 µM, first compound 0.01 µM): 90.3% | viability, T/C [7]: 74% | viability, T/C [8]: 52.8% | viability, T/C (second compound 3.16 µM, first compound 0.000316 µM): 101% | viability, T/C (second compound 3.16 µM, first compound 0.001 µM): 96.1% | viability, T/C (second compound 3.16 µM, first compound 0.00316 µM): 108% | viability, T/C (second compound 3.16 µM, first compound 0.01 µM): 105% | viability, T/C [9]: 70% | viability, T/C [10]: 52.3% | viability, T/C (second compound 10 µM, first compound 0.000316 µM): 84.6% | viability, T/C (second compound 10 µM, first compound 0.001 µM): 83.9% | viability, T/C (second compound 10 µM, first compound 0.00316 µM): 74.6% | viability, T/C (second compound 10 µM, first compound 0.01 µM): 87.8% | viability, T/C [11]: 66.6% | viability, T/C [12]: 49.6%

Nc1ccn(C2OC(CO)C(O)C2(F)F)c(=O)n1 (centres undefined) + Cc1cccc(N(C)C(=O)C2C(O)CCN2c2nc(C)cc(C(F)(F)F)c2C#N)c1
IC50 (second compound 0.0316 µM): < 31.6 nM | IC50 (second compound 0.1 µM): < 31.6 nM | IC50 (second compound 0.316 µM): < 31.6 nM | IC50 (second compound 1 µM): < 31.6 nM | IC50 (second compound 3.16 µM): < 31.6 nM | IC50 (second compound 10 µM): < 31.6 nM | viability, T/C [1]: 47.1% | viability, T/C [2]: 50.2% | viability, T/C (second compound 0.0316 µM, first compound 0.316 µM): 30.6% | viability, T/C (second compound 0.0316 µM, first compound 1 µM): 45.5% | viability, T/C (second compound 0.0316 µM, first compound 3.16 µM): 42.4% | viability, T/C (second compound 0.0316 µM, first compound 10 µM): 43% | viability, T/C [3]: 48.9% | viability, T/C [4]: 44% | viability, T/C (second compound 0.1 µM, first compound 0.316 µM): 40.9% | viability, T/C (second compound 0.1 µM, first compound 1 µM): 51.4% | viability, T/C (second compound 0.1 µM, first compound 3.16 µM): 44.5% | viability, T/C (second compound 0.1 µM, first compound 10 µM): 32.9% | viability, T/C [5]: 42.3% | viability, T/C [6]: 45.2% | viability, T/C (second compound 0.316 µM, first compound 0.316 µM): 37.4% | viability, T/C (second compound 0.316 µM, first compound 1 µM): 44.8% | viability, T/C (second compound 0.316 µM, first compound 3.16 µM): 43.2% | viability, T/C (second compound 0.316 µM, first compound 10 µM): 38.3% | viability, T/C [7]: 37.9% | viability, T/C [8]: 44.5% | viability, T/C (second compound 1 µM, first compound 0.316 µM): 37.6% | viability, T/C (second compound 1 µM, first compound 1 µM): 47.7% | viability, T/C (second compound 1 µM, first compound 3.16 µM): 35.9% | viability, T/C (second compound 1 µM, first compound 10 µM): 41.5% | viability, T/C [9]: 38.7% | viability, T/C [10]: 43.6% | viability, T/C (second compound 3.16 µM, first compound 0.316 µM): 44% | viability, T/C (second compound 3.16 µM, first compound 1 µM): 49.3% | viability, T/C (second compound 3.16 µM, first compound 3.16 µM): 34.9% | viability, T/C (second compound 3.16 µM, first compound 10 µM): 36.6% | viability, T/C [11]: 40.6% | viability, T/C [12]: 41.6% | viability, T/C (second compound 10 µM, first compound 0.316 µM): 40.7% | viability, T/C (second compound 10 µM, first compound 1 µM): 45.1% | viability, T/C (second compound 10 µM, first compound 3.16 µM): 43.5% | viability, T/C (second compound 10 µM, first compound 10 µM): 37.8%
